Experimental data reported in patent US9851354B2, “Methods of treating fragile X syndrome and related disorders” (Alcobra Ltd., priority 2013, dated 2017).
Entries after “also recorded” stand apart in the source; their conditions may differ.

Legend:
Akt = assay: Brain phosphorylation of Akt (western blot); assay type: in vivo, mouse
Experimental: (§1) In all cases, saline was used as a vehicle (control).
(§2) The Ras-Mek-ERK and PI3K-Akt-mToR signaling pathways are involved in mediating activity dependent alterations in gene transcription underlying changes in synaptic plasticity (Klann and Dever, 2004). Phosphorylated ERK and Akt protein expression was measured by western blot analysis as previously described by Lopez Verrilli (Lopez Verrilli et al., 2009). The antibodies employed were anti-phosphospecific antibodies against Akt (1/1000) and kinase (ERK) 1/2 (1/2000) (Cell Signaling Technology, Danvers, Mass., USA). The antibody against phospho-ERK detects phosphorylation at phospho-ERK 1/2 (Thr202/Tyr204) whereas the antibody against phospho-Akt detects phosphorylation at phospho-Akt (Thr308). Total Akt and ERK 1/2 protein content and phosphorylated ERK and Akt were evaluated by blotting membranes with antiphospho-Akt (1/1000) and antiphospho-ERK antibodies (1/2000) (Cell Signaling Technology, Danvers, Mass., USA). Akt or ERK phosphorylation was normalized to protein content in the same sample and expressed as % of change with respect to basal conditions, considering basal levels as 100%. Protein loading was evaluated by stripping and re-blotting membranes with j-actin antibody (1/1000) (Sigma-Aldrich, St. Louis, Mo., USA). Phosphorylated ERK and Akt protein expression in blood lymphocytes was measured by flow cytometry. For lymphocyte biomarker determinations, a FACStar plus (Becton Dickinson) was used with the excitation laser tuned at 488 nm and green fluorescence from FITC (GST) was collected through a 515-545 nm bandpass filter. The mean FITC fluorescence Intensity was calculated in relation to the fluorescence of reference cells. The mean cellular fluorescence intensity (MFI) is directly proportional to the mean number of Ab molecules bound per cell.

[1] = system: hippocampal slices from Fmr1 knockout or WT mice; assay: De novo hippocampal protein synthesis in vitro (SUnSET); assay type: cell-based, mouse; details: hippocampal slices from Fmr1 KO mice, 300 μM
Experimental: as §1
Transverse hippocampal slices (400 μm) were obtained from 6-week-old Fmr1 knockout and WT mice. A protein synthesis assay was performed as previously described using the nonradioactive fluorescence-activated cell sorting-based assay, surface sensing of translation (SUnSET) method, which allows the monitoring and quantification of global protein synthesis in individual mammalian cells and in heterogeneous cell populations. (Hoeffer, 2011).

[2] = system: Fmr1 knockout (KO) or Wild Type (WT) mice; assay: Social recognition memory (Trial 2, social memory ratio); assay type: in vivo, mouse; details: for social memory, duration of sniffing: 2 months old, Study 2; for duration of sniffing, Trial 2: 150 mg/kg ip 7 days
Experimental: (§3) Fmr1 knockout mice (KO2) mice (The Dutch-Belgium Fragile X Consortium, 1994), initially obtained from the Jackson Laboratory, and wild type (WT) littermates were generated on a C57BL/6J background and repeatedly backcrossed onto a C57BL/6J background for more than eight generations. The Fmr1 knockout mice were housed in groups of the same genotype in a temperature and humidity controlled room with a 12-h light-dark cycle (lights on from 7 am to 7 pm; testing was conducted during light phase). Room temperature and humidity were recorded continuously in the holding room while food and water were available ad libitum. Testing was conducted on healthy Fmr1 knockout mice and their wild type littermates (N=10 mice per treatment group) at 2 or 6 months of age during the behavioral experiments. Mice were housed in commercial plastic cages and experiments were conducted in line with the requirements of the UK Animals (Scientific Procedures) Act, 1986. All experiments were conducted with experimenters blind to genotype and drug treatment. Animals were allowed a minimum acclimatization period of one week prior to performing any experiment. No prophylactic or therapeutic treatment was administered during the acclimatization period.
as §1
Mice were placed in a test arena/cage of the same order of magnitude in size as the adult's home cage (40×23×12 cm cage, with a Perspex lid to facilitate viewing the mice) with fresh wood chippings on the floor. A background mouse odor was created by putting in some non-experimental mice into the apparatus prior to testing. Mice were transferred to the experimental room 10-15 min prior to testing. A test subject and a juvenile were placed simultaneously into the test cage. The total duration and number of bouts of social investigation, defined as sniffing and close following (<2 cm from the tail) of the stimulus juvenile by the tested mouse, was assessed for 3 min. 30 min later, the test was repeated using the same stimulus juvenile. Data parameters collected were the total duration and total number of bouts of sniffing for the acquisition and recognition. A social memory ratio was derived, defined as trial 2/trial 1+2. Therefore, no memory (e.g. 20/(20+20)=0.5 and memory (e.g. 10/(20+10)=<0.5.
Multivariate analysis of variance was employed to assess group differences across data. Repeated measures ANOVA were performed for behavioral data. Statistically significant effects in each ANOVA were followed with post hoc comparisons, using the Newman-Keuls test (Study 1) or the Tukey test (Study 2). A p value of less than 0.05 was considered significant.
Social memory ratio was defined as the duration of sniffing bouts: trial 2/trial 1+2. Therefore, an example of no memory was (e.g. 20/(20+20)=0.5, while an example of memory was (e.g. 10/(20+10)=<0.5.

[3] = cited from earlier work
[4] = system: Fmr1 knockout (KO) or Wild Type (WT) mice; assay: T-maze rewarded alternation task; assay type: in vivo, mouse; details: 2 months old, 150 mg/kg once daily 7 days, Study 1
Experimental: as §3, §1
An elevated or enclosed apparatus in the form of a T (placed horizontally) was used. […]

ERK [5] = assay: Lymphocyte pERK (flow cytometry); assay type: in vivo, mouse; details: Fmr1 KO mice, 2 months old
Experimental: as §1, §2

ERK [6] = assay: Brain phosphorylation of ERK (western blot); assay type: in vivo, mouse
Experimental: as §1, §2

[7] = Fmr1 KO mice, 2 months old, 150 mg/kg ip 7 days, Study 2
[8] = Fmr1 KO mice, 6 months old, 150 mg/kg ip once daily 7 days
[9] = WT mice, 2 months old, 150 mg/kg ip 7 days, Study 2
[10] = WT mice, 2 months old, 150 mg/kg ip once daily 7 days, Study 1
[11] = any mice (KO or WT), 2 months old, 150 mg/kg ip once daily 7 days, Study 1

Cc1ncc(CO)c(CO)c1O.O=C1CC[C@@H](C(=O)O)N1 [metadoxine, pyridoxol L,2-pyrrolidon-5 carboxylate]
pAkt levels in hippocampus (Akt; [7]): complete reversal of activation of Akt | pAkt levels in pre-frontal cortex (Akt; [7]): complete reversal of activation of Akt | pAkt levels in striatum (Akt; [7]): complete reversal of activation of Akt | whole brain levels of pAkt (Akt; [8]): reversed this increase in brain pAkt | pAkt levels in hippocampus, pre-frontal cortex and striatum (Akt; [9]): without effect on WT mice | whole brain phosphorylated Akt (Akt; [10]): no effect on WT mice | whole brain total Akt levels (Akt; [11]): no effect | basal de novo protein synthesis [1]: reduced protein synthesis rates in Fmr1 knockout mouse hippocampi. This effect was partial | social memory, duration of sniffing ([2]; Fmr1 KO mice, 150 mg/kg ip once daily 7 days): reversal was complete | social memory, duration of sniffing ([2]; Fmr1 KO mice, 150 mg/kg oral once daily 7 days): reversal was complete | social memory, duration of sniffing ([2]; Fmr1 KO mice, 300 mg/kg oral once daily 7 days): reversal was complete | social memory, duration of sniffing (Trial 2) [2, 8]: reversal by metadoxine was complete | social memory, number of sniffing bouts (Trial 2) [2, 8]: reversal for number of sniffing bouts was partial | duration of sniffing, Trial 2 ([2]; KO-M: Fmr1 KO mice, 6 months old): 12.7 | social memory, duration of sniffing ([2]; WT mice, any dose (150 mg/kg ip, 150 and 300 mg/kg oral)): without effect on WT mice | social memory, sniffing bouts and duration (Trial 2) ([2]; WT mice, 6 months old, 150 mg/kg ip once daily 7 days): without effect on WT mice | duration of sniffing, Trial 2 ([2]; WT-M: WT mice, 6 months old): 12.5 | mean half life ([3]; human serum, Lu Yuan et al. 2007): about 0.8 hour | half-life in human serum ([3]; human serum, no appreciable differences between oral and intravenous administration): 40 to 60 min | oral bioavailability ([3]; oral): 60-80% | T-maze rewarded alternation working memory (latency to reach the correct arm) [4]: reversal being partial; also recorded: significant improvement in memory | lymphocyte pERK (ERK [5]; 150 mg/kg ip once daily 7 days): normalized overactivated ERK | lymphocyte pERK (ERK [5]; 150 mg/kg oral once daily 7 days): normalized overactivated ERK | lymphocyte pERK (ERK [5]; 300 mg/kg oral once daily 7 days): normalized overactivated ERK | pERK levels in hippocampus (ERK [6]; [7]): complete reversal of activation of ERK | pERK levels in pre-frontal cortex (ERK [6]; [7]): effect in pre-frontal cortex was partial | pERK levels in striatum (ERK [6]; [7]): complete reversal of activation of ERK | whole brain levels of pERK (ERK [6]; [8]): increase was reversed by metadoxine treatment | pERK levels in hippocampus, pre-frontal cortex and striatum (ERK [6]; [9]): without effect on WT mice | whole brain phosphorylation of ERK (ERK [6]; [10]): no effect on phosphorylation of ERK in WT mice | whole brain total ERK levels (ERK [6]; [11]): no effect
